Test results taken from PubChem BioAssay AID248 (DTP/NCI, 2004).
Where “and” joins values, the source holds several entries; their conditions need not be identical. Equal values may be shown once. Toxic doses and inconclusive results are not listed. Cut-off read from the data, not from the text of the source: active = T/C of 150% or more; inactive = T/C below 125%.

Tested on: L1210 leukemia ip in BDF1 mice, survival T/C
Assay: NCI In Vivo Anticancer Drug Screen. Data for tumor model L1210 Leukemia (intraperitoneal) in B6D2F1 (BDF1) mice
Conditions: endpoint: mean survival time, higher = longer survival
Method in brief: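 In this screen, tumor-bearing mice given compound are compared to those given vehicle, and their survival values are reported as a treated-to-control quotient.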

[1] = dose: 100.0 mg/kg/injection, schedule: Q04DX003 (ip), vehicle: Klucel (hydroxypropylcellulose) (HPC)
[2] = dose: 200.0 mg/kg/injection, schedule: Q04DX003 (ip), vehicle: Klucel (hydroxypropylcellulose) (HPC)
[3] = dose: 400.0 mg/kg/injection, schedule: Q04DX003 (ip), vehicle: Klucel (hydroxypropylcellulose) (HPC)
[4] = dose: 100.0 mg/kg/injection, schedule: Q01DX001 (ip), vehicle: saline
[5] = dose: 200.0 mg/kg/injection, schedule: Q01DX001 (ip), vehicle: saline
[6] = dose: 400.0 mg/kg/injection, schedule: Q01DX001 (ip), vehicle: saline
[7] = dose: 50.0 mg/kg/injection, schedule: Q01DX009 (ip), vehicle: saline with Tween-80
[8] = dose: 100.0 mg/kg/injection, schedule: Q01DX001 (ip), vehicle: saline with Tween-80
[9] = dose: 100.0 mg/kg/injection, schedule: Q01DX009 (ip), vehicle: saline with Tween-80
[10] = dose: 200.0 mg/kg/injection, schedule: Q01DX001 (ip), vehicle: saline with Tween-80
[11] = dose: 100.0 mg/kg/injection, schedule: Q01DX009 (ip), vehicle: Klucel (hydroxypropylcellulose) (HPC)
[12] = dose: 200.0 mg/kg/injection, schedule: Q01DX009 (ip), vehicle: Klucel (hydroxypropylcellulose) (HPC)
[13] = dose: 400.0 mg/kg/injection, schedule: Q01DX009 (ip), vehicle: Klucel (hydroxypropylcellulose) (HPC)
[14] = dose: 25.0 mg/kg/injection, schedule: Q01DX009 (ip), vehicle: saline
[15] = dose: 200.0 mg/kg/injection, schedule: Q01DX009 (ip), vehicle: saline with Tween-80
[16] = dose: 12.5 mg/kg/injection, schedule: Q04DX003 (ip), vehicle: saline with Tween-80
[17] = dose: 25.0 mg/kg/injection, schedule: Q04DX003 (ip), vehicle: saline with Tween-80

Measured: T/C

CC1C=CC=CC=C1
inactive: dose: 100.0 mg/kg/injection, schedule: Q01DX001 (ip), vehicle: Klucel (hydroxypropylcellulose) (HPC) 98 % of control | [1] 102 % of control | dose: 200.0 mg/kg/injection, schedule: Q01DX001 (ip), vehicle: Klucel (hydroxypropylcellulose) (HPC) 90 % of control | [2] 93 % of control | dose: 400.0 mg/kg/injection, schedule: Q01DX001 (ip), vehicle: Klucel (hydroxypropylcellulose) (HPC) 92 % of control | [3] 86 % of control

CC(=O)OC1CCCc2c(O)c3c(c(O)c21)C(=O)c1ccccc1C3=O (configuration not stated)
inactive: [4] 93 % of control | [5] 93 % of control | [6] 91 % of control

CCOP(=O)(/C=C/c1ccccc1)OCC
inactive: dose: 100.0 mg/kg/injection, schedule: Q04DX003 (ip), vehicle: saline 109 % of control | dose: 200.0 mg/kg/injection, schedule: Q04DX003 (ip), vehicle: saline 98 % of control | dose: 400.0 mg/kg/injection, schedule: Q04DX003 (ip), vehicle: saline 87 % of control

Cc1cc(Br)ccc1OCC(=O)O
inactive: [1] 96 % of control | [2] 93 % of control | [3] 98 % of control

Cc1nc(SCc2ccc(Cl)cc2)nc(N2CC2)c1Br
inactive: dose: 59.0 mg/kg/injection, schedule: Q01DX Z (ip), vehicle: methylcellulose (MC) 94 % of control | dose: 88.0 mg/kg/injection, schedule: Q01DX Z (ip), vehicle: methylcellulose (MC) 86 % of control | dose: 200.0 mg/kg/injection, schedule: Q01DX Z (ip), vehicle: methylcellulose (MC) 95 % of control

O=Cc1[nH]c(=O)[nH]c(=O)c1Br
inactive: [7] 94 % of control | [8] 112 % of control | [9] 98 % of control | [10] 116 % of control

NC(=S)N/N=C/c1cc(Br)c(O)c(Br)c1
inactive: [11] 104 % of control | [12] 91 % of control | [13] 98 % of control

O=[N+]([O-])c1[nH]cnc1S(=O)(=O)Cl
inactive: [4] 94 % of control | [5] 94 % of control | [6] 97 % of control

CC1CCC(NC(=O)NCCCl)c2ccccc21 (configuration not stated)
inactive: dose: 20.0 mg/kg/injection, schedule: Q04DX003 (ip), vehicle: Klucel (hydroxypropylcellulose) (HPC) 102 % of control | dose: 40.0 mg/kg/injection, schedule: Q04DX003 (ip), vehicle: Klucel (hydroxypropylcellulose) (HPC) 100 % of control | dose: 80.0 mg/kg/injection, schedule: Q04DX003 (ip), vehicle: Klucel (hydroxypropylcellulose) (HPC) 100 % of control

C=CC1CC[N-]CC1.C=CC1CC[N-]CC1.C=CC1CC[N-]CC1.[Cl][Cr]([Cl])[Cl]
inactive: [14] 97 % of control | dose: 50.0 mg/kg/injection, schedule: Q01DX009 (ip), vehicle: saline 94 % of control

NNc1cnc2ccccc2n1
inactive: dose: 100.0 mg/kg/injection, schedule: Q01DX009 (ip), vehicle: saline sonified 90 % of control | dose: 100.0 mg/kg/injection, schedule: Q04DX003 (ip), vehicle: saline with Tween-80 101 % of control | dose: 200.0 mg/kg/injection, schedule: Q04DX003 (ip), vehicle: saline with Tween-80 97 % of control | dose: 400.0 mg/kg/injection, schedule: Q04DX003 (ip), vehicle: saline with Tween-80 113 % of control

O/N=C/c1c(O)cccc1Cl
inactive: dose: 75.0 mg/kg/injection, schedule: Q01DX001 (ip), vehicle: acetone 102 % of control | dose: 150.0 mg/kg/injection, schedule: Q01DX001 (ip), vehicle: acetone 91 % of control

Cc1ccc(C)c(N=Nc2ccc(O)cc2)c1
inactive: [9] 94 % of control | [15] 93 % of control

C=C=CC1CCCC1C (configuration not stated)
inactive: [7] 110 % of control | [9] 106 % of control | [15] 92 % of control

CCOC(CCc1c(-c2ccccc2)nc(NC(C)=O)[nH]c1=O)OCC
inactive: [11] 105 % of control | [12] 100 % of control | [13] 92 % of control

O=C(NCCCl)Nc1cccnc1
inactive: dose: 6.25 mg/kg/injection, schedule: Q01DX009 (ip), vehicle: saline 104 % of control | dose: 12.5 mg/kg/injection, schedule: Q01DX009 (ip), vehicle: saline 101 % of control | [16] 102 % of control | [14] 105 % of control | [17] 96 % of control

O=c1ccc2c(ccc3ncccc32)o1
inactive: dose: 50.0 mg/kg/injection, schedule: Q01DX009 (ip), vehicle: carboxymethylcellulose (CMC) 87 % of control | dose: 50.0 mg/kg/injection, schedule: Q04DX003 (ip), vehicle: carboxymethylcellulose (CMC) 117 % of control | dose: 100.0 mg/kg/injection, schedule: Q01DX009 (ip), vehicle: carboxymethylcellulose (CMC) 98 % of control | dose: 100.0 mg/kg/injection, schedule: Q04DX003 (ip), vehicle: carboxymethylcellulose (CMC) 111 % of control | dose: 200.0 mg/kg/injection, schedule: Q04DX003 (ip), vehicle: carboxymethylcellulose (CMC) 93 % of control

OC(Nc1ccccn1)(C(F)(F)F)C(F)(F)F
inactive: [4] 103 % of control

CCOC(=O)C1=NN(c2ccccc2)C(=O)C1N=Nc1c(Br)cc(S(N)(=O)=O)cc1Br (configuration not stated)
inactive: [4] 96 % of control | [5] 101 % of control | [6] 98 % of control

CCOC(=O)C1(CCCBr)CCCCC1=O (configuration not stated)
inactive: [8] 107 % of control | [10] 102 % of control | dose: 400.0 mg/kg/injection, schedule: Q01DX001 (ip), vehicle: saline with Tween-80 104 % of control

O=C(O)c1ccc(F)c(F)c1F
inactive: dose: 100.0 mg/kg/injection, schedule: Q04DX002 (ip), vehicle: other 121 % of control | dose: 200.0 mg/kg/injection, schedule: Q04DX002 (ip), vehicle: other 115 % of control

CCn1c(C)cc(=O)n1-c1ccc([N+](=O)[O-])cc1
inactive: [1] 96 % of control | [2] 104 % of control | [3] 98 % of control

Clc1ccc(/C=N/N=C(N/N=C/c2ccc(Cl)cc2Cl)N/N=C/c2ccc(Cl)cc2Cl)c(Cl)c1
inactive: dose: 15.0 mg/kg/injection, schedule: Q01DX Z (ip), vehicle: carboxymethylcellulose (CMC) 88 % of control | dose: 30.0 mg/kg/injection, schedule: Q01DX Z (ip), vehicle: carboxymethylcellulose (CMC) 93 % of control | dose: 60.0 mg/kg/injection, schedule: Q01DX Z (ip), vehicle: carboxymethylcellulose (CMC) 95 % of control and 88 % of control | dose: 120.0 mg/kg/injection, schedule: Q01DX Z (ip), vehicle: carboxymethylcellulose (CMC) 87 % of control and 88 % of control | dose: 240.0 mg/kg/injection, schedule: Q01DX Z (ip), vehicle: carboxymethylcellulose (CMC) 93 % of control | dose: 240.0 mg/kg/injection, schedule: Q01DX Z (oral), vehicle: carboxymethylcellulose (CMC) 102 % of control | dose: 480.0 mg/kg/injection, schedule: Q01DX Z (ip), vehicle: carboxymethylcellulose (CMC) 87 % of control | dose: 480.0 mg/kg/injection, schedule: Q01DX Z (oral), vehicle: carboxymethylcellulose (CMC) 104 % of control | dose: 960.0 mg/kg/injection, schedule: Q01DX Z (oral), vehicle: carboxymethylcellulose (CMC) 105 % of control | dose: 1920.0 mg/kg/injection, schedule: Q01DX Z (oral), vehicle: carboxymethylcellulose (CMC) 102 % of control

O=C(O)CC(Br)C(=O)c1ccccc1 (configuration not stated)
inactive: dose: 12.5 mg/kg/injection, schedule: Q01DX009 (ip), vehicle: saline with Tween-80 91 % of control | [16] 96 % of control | dose: 25.0 mg/kg/injection, schedule: Q01DX009 (ip), vehicle: saline with Tween-80 95 % of control | [17] 96 % of control | [7] 95 % of control | dose: 50.0 mg/kg/injection, schedule: Q04DX003 (ip), vehicle: saline with Tween-80 104 % of control

CC(C)OC(=O)Nc1cccc(Br)c1
inactive: dose: 100.0 mg/kg/injection, schedule: Q04DX002 (ip), vehicle: Klucel (hydroxypropylcellulose) (HPC) 92 % of control | dose: 200.0 mg/kg/injection, schedule: Q04DX002 (ip), vehicle: Klucel (hydroxypropylcellulose) (HPC) 106 % of control | dose: 400.0 mg/kg/injection, schedule: Q04DX002 (ip), vehicle: Klucel (hydroxypropylcellulose) (HPC) 95 % of control

Cc1[nH]nc(-c2cccnc2)c1N=NN1CCC(C(N)=O)CC1
inactive: dose: 75.0 mg/kg/injection, schedule: Q01DX001 (ip), vehicle: other 103 % of control

O=C(Nc1ccc(Cl)c([N+](=O)[O-])c1)N(CC(O)c1ccccc1)C1CCCCC1 (configuration not stated)
inactive: [11] 93 % of control | [12] 93 % of control | [13] 87 % of control
